Laboratory results taken from ChEMBL document CHEMBL4265902, “Design and synthesis of cyclopropane-based conformationally restricted GABA analogues as selective inhibitors for betaine/GABA transporter 1” (Bioorg Med Chem Lett, 2018).

What was measured:
[1] = target: T1, Sodium- and chloride-dependent GABA transporter 2 (Homo sapiens) (UniProt Q9NSD5); test: Inhibition of human GAT2 expressed in CHO cells assessed as reduction in [3H]GABA uptake at 100 uM after 20 mins by liquid scintillation counting analysis relative to control; assay type: cell-based
T1 sequence (whole entry): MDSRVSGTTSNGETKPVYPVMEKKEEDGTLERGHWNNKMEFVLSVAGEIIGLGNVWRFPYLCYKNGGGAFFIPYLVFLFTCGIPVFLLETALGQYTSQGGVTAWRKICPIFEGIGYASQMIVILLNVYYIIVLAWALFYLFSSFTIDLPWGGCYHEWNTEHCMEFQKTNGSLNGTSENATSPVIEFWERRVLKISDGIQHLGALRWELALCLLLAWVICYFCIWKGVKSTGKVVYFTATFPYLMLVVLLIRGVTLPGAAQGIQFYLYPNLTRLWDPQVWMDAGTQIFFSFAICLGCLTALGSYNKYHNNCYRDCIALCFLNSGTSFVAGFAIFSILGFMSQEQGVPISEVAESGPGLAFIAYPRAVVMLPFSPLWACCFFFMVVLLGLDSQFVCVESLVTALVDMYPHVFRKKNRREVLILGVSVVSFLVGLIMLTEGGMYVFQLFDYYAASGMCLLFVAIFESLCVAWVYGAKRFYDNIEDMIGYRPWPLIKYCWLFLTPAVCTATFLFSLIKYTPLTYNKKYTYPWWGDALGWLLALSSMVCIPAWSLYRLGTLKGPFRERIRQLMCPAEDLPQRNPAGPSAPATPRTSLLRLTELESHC

[2] = target: T2, Sodium- and chloride-dependent GABA transporter 3 (Homo sapiens) (UniProt P48066); test: Inhibition of human GAT3 expressed in CHO cells assessed as reduction in [3H]GABA uptake at 100 uM after 20 mins by liquid scintillation counting analysis relative to control; assay type: cell-based
T2 sequence (whole entry): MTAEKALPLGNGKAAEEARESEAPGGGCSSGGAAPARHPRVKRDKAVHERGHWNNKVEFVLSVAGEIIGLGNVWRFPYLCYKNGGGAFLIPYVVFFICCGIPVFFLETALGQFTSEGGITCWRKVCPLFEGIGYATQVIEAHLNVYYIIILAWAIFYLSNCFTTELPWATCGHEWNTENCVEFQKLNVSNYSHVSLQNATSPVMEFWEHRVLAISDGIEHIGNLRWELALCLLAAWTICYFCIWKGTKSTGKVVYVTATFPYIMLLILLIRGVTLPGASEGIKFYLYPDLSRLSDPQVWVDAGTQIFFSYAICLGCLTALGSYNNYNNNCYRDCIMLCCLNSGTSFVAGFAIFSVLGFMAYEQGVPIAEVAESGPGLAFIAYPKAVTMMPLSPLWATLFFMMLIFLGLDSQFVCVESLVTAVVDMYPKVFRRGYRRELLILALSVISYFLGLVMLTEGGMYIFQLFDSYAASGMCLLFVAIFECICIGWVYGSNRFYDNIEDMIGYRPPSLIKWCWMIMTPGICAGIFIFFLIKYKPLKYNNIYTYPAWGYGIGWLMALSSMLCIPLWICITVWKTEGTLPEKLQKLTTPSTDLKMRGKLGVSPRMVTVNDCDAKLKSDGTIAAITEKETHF

[3] = target: T3, Sodium- and chloride-dependent betaine transporter (Homo sapiens) (UniProt P48065); test: Inhibition of human BGT1 expressed in CHO cells assessed as reduction in [3H]GABA uptake at 100 uM after 20 mins by liquid scintillation counting analysis relative to control; assay type: cell-based
T3 sequence (whole entry): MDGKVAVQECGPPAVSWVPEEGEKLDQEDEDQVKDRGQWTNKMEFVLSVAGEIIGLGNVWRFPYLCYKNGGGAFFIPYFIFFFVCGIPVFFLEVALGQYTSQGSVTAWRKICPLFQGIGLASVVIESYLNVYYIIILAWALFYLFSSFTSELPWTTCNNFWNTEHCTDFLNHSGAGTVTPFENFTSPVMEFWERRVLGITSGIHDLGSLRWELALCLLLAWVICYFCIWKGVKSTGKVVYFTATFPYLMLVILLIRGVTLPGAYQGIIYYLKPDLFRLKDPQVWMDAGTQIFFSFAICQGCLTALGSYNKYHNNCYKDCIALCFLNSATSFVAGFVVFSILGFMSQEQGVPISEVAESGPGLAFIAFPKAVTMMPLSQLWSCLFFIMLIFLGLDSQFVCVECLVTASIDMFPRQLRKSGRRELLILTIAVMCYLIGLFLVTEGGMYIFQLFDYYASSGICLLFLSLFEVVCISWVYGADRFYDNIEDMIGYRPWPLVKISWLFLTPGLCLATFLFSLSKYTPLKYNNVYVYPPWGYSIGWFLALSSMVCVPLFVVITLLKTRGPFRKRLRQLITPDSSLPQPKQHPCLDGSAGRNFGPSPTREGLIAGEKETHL

Homo sapiens = organism: Homo sapiens; test: Selectivity for human BGT1 over human GAT3
[4] = target: Sodium- and chloride-dependent GABA transporter 1 (Homo sapiens) (UniProt P30531); test: Inhibition of human GAT1 expressed in CHO cells assessed as reduction in [3H]GABA uptake at 100 uM after 20 mins by liquid scintillation counting analysis relative to control; assay type: cell-based
Chain of Sodium- and chloride-dependent GABA transporter 1 (Homo sapiens) (P30531 whole entry, looked up): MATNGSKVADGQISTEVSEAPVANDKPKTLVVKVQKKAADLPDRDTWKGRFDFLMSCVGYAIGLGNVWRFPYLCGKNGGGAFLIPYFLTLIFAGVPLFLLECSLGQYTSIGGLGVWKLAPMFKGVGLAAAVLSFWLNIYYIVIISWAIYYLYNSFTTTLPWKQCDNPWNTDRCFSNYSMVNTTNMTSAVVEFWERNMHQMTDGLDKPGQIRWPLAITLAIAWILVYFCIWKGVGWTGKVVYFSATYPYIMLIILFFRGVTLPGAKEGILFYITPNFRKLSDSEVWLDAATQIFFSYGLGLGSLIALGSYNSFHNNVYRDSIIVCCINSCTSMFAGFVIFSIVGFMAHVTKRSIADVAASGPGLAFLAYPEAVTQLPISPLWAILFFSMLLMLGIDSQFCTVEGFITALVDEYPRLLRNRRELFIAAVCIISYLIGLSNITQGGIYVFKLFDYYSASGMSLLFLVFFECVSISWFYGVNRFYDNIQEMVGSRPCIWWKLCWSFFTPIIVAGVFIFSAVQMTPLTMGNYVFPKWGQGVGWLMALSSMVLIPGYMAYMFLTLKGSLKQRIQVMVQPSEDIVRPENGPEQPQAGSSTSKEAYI

Structure (SMILES)	inhibition [1]	inhibition [2]	inhibition [3]	Selectivity ratio (Homo sapiens)	inhibition [4]
N[C@@H]1C[C@H]1[C@@H](F)C(=O)O	45.3%	5.2%	22.2%		
[N-]=[N+]=N[C@@H](C(=O)O)[C@@H]1C[C@H]1N	6.8%	11.8%	57.2%	5 to 7	
C[C@H](C(=O)O)[C@@H]1C[C@H]1N		25.6%	57.3%		0%
CC[C@@H](C(=O)O)[C@@H]1C[C@H]1N	3.3%	-2.4%	13.4%		8.6%
C[C@@H](C(=O)O)[C@@H]1C[C@H]1N	-5.2%	9.3%	62.7%	5 to 7	4.3%
N[C@@H]1C[C@H]1[C@@H](O)C(=O)O	20.1%	8.3%	44.7%	5 to 7	
CC[C@H](C(=O)O)[C@@H]1C[C@H]1N	-2.4%		-1.3%		12.2%
C=C[C@@H](C(=O)O)[C@@H]1C[C@H]1N	-9.5%	-3.6%			
